Experimental data: patent US20260364186A1, “Chemical Conjugates, Compositions, and Methods of Preparation and Use Thereof” (Transfection Holdings Limited, priority 2022, published 2026)
“Also recorded” adds a separate entry of the source.

Tests used:
[1] = system: Jurkat cells; assay: Time course of uptake by FACS (Example 6); assay type: cell-based, human; details: 200 nM
Protocol: FIG. 6: Time course of uptake for 124, 126, and 132 conjugate compounds. Tests were performed using 200 nM each conjugate and 5, 30 and 60 min incubation with Jurkat cells (immortalized T lymphocytes). Mean fluorescent intensities (MFI). 1,200 cells sorted by FACS. Bars represent mean±SD. Results represents a single experiment done in triplicate.
Materials and methods: Jurkat cells were diluted on RPMI media (supplemented with 10% FBS+1% penicillin-streptomycin) to 400 cells/μL. 5 μL of […] stock solutions in DMSO from 124, 126 and 132 were diluted with 1245 μL of RPMI media (supplemented with 10% FBS+1% penicillin-streptomycin) to give a 400 nM solution. 250 μL of cell suspensions were then added to each well in a 96 well plate and 250 μL of conjugate solutions (giving a 200 nM final concentration). 250 μL of media only was added to the DMSO control wells. Incubation was carried out for 5, 30 and 60 minutes at 37 °C in triplicate wells for each compound and time point.

[2] = Whole body fluorescent cryo-imaging, tissue distribution (Example 13); assay type: in vivo, mouse; details: 0.7 mg/kg i.v., 1 hour post dosing
Protocol: Materials and methods: Compound 124 was supplied as a 10 mM stock solution in DMSO. NZM011 cells were grown in AMEM, 5% FBS, 5 μg/mL insulin, 5 μg/mL transferrin, 5 ng/mL sodium selenite at 37 °C with 5% O2, 90% N2 5% CO2. The study was performed in 6-week-old male NIH-III athymic mice (strain code 201). Work was carried out by Ichor Biosciences La Fayette NY, USA. Mice were injected on one flank with 5×10^6 NZM11 cells in a 50:50 matrigel:media suspension with a 22G needle. When tumours reach over 500 mm3 the mice were administered intravenously (tail vein) with a solution of compound 124 in phosphate buffered saline at a dose of 0.7 mg/kg. The mice were euthanized at 1 hour or 6 hours post dosing and frozen for cryoimaging. A control mouse received no tumour cells or compound 124 and was euthanized and frozen for cryoimaging at the same time as the treated mice.
Processed animals were cryoimaged imaged at BioInvision in Cleveland Ohio. Whole animal was sectioned at 40 microns and imaged using brightfield at fluorescent modes (503 nm). In-plane pixel size 10 microns. Mouse #1 with tumour on one flank at 500 mm3, treated with compound 124 (0.7 mg/kg) and euthanised 1 hour post treatment. Mouse #6 no tumour or compound 124 treatment euthanised on same day.

[3] = system: PBMCs / normal blood cells; assay: FACS uptake of BODIPY FL conjugates in PBMCs (Example 3); assay type: cell-based, human; details: 135 nM
Protocol: (§1) FIG. 3A. Conjugate compounds coupled to BODIPY FL were tested for uptake using 135 nM each conjugate and 4.5 minute incubation with human lymphocytes, monocytes and neutrophils (from a healthy donor). Mean fluorescent intensities (MFI). 1,000 cells (lymphocytes), 500 cells (monocytes) and 250 cells (neutrophils) sorted by FACS. Bars represent mean±SD. Results represent a single experiment done in duplicate.
(§2) In addition to this, 25 mL of full blood was collected from a healthy donor in lithium-heparin vacutainer. Peripheral blood mononuclear cells (PBMCs) were collected after ficoll separation. PBMCs then were centrifuge at 400 g for 5 minutes. Supernatant was removed from the cells and resuspended with 20 mL of HBSS with a final concentration of 417,500 cells/mL. Then, 479 μL of cells suspension were poured into Eppendorf tube and 1000 μL of 200 nM drug solution in HBSS were added to afford 135 nM final drug concentration, incubated at 37 °C for 5 minutes. After incubation time, PBMCs were centrifuged at 400 g for 5 minutes. Supernatant was removed from the cells and pellet resuspended with 200 μL of HBSS. Suspension was transferred to 96 well-plate and run on FACS machine, approximately 1,000-250 cells analysed. The FACS results output represented the mean of the fluorescence intensities (in arbitrary units) measured for cells sorted in every sample.

[4] = system: Jurkat cells; assay: Flow cytometry time course of uptake (Example 12); assay type: cell-based, human; details: 200 nM
Protocol: FIG. 12: Time course of uptake for compounds 124, 126, and 132 at 200 nM after 5, 30 or 60 minute incubation with Jurkat cells. Mean fluorescent intensities (MFI). 1,000 cells were sorted by FACS. Bars represent mean±SD. Results represents a single experiment done in triplicate.
Materials and methods: For this study, 7.7×10^5 Jurkat cells were centrifuged for 5 minutes at 2500 RPM. The supernatant was removed and the cells were diluted in RPMI media (supplemented with 1% FBS+1% penicillin-streptomycin) to 400 cells/μL. Next, 28 μL of 100 μM stock solutions from compound 124, 126, or 132 were diluted with 6972 μL of RPMI media (supplemented with 1% FBS+1% penicillin-streptomycin) to give a 400 nM solution. Following this, 250 μL of conjugate solutions (giving a 200 nM final concentration) and 250 μL of cell suspensions were then added to each well in a 96 well plate. In addition, 250 μL of media only was added to the DMSO control wells. Incubation was carried out for 5, 30 and 60 minutes at 37 °C in triplicate wells for each compound and time point.
After incubation, cells were centrifuged for 1.5 minutes at 5000 RCF. Supernatant was removed and the cell pellet re-suspended in 200 μL fresh RPMI media, transferred to 96 well-plate and each cell suspension analysed by flow cytometry. Flow cytometry results represent the mean of the fluorescence intensities (in arbitrary units) measured for cells sorted in every sample.

[5] = system: neutrophils; assay: FACS uptake of BODIPY FL conjugates in PBMCs (Example 3); assay type: cell-based, human; details: 135 nM
Protocol: as §1, §2

[6] = system: monocytes; assay: as above; assay type: cell-based, human; details: 135 nM
Protocol: as §1, §2

Row | Compound | incubation time to saturation point [1] | uptake, in words ([1]; 5 to 60 minutes) | fluorescent intensity compared to 126 and 132 ([1]; 5 minutes) | fluorescent intensity compared to 126 and 132 ([1]; 30 minutes) | times greater fluorescence than 126 and 132 ([1]; 60 minutes) | 124-specific fluorescence in bladder [2] | 124-specific fluorescence in kidneys [2] | fluorescence in any other tissues [2] | route of excretion [2] | uptake [3] | uptake, times higher than DMSO control ([4]; 5 minutes) | uptake increase compared to DMSO control ([4]; 30 minutes) | uptake increase compared to DMSO control ([4]; 60 minutes) | uptake, in words ([4]; 5, 30, 60 minutes) | targeting / fluorescence intensities [5] | targeting / fluorescence intensities [6]
1 | CC1=CC(C)=[N+]2C1=Cc1ccc(CCCn3cc(CCNC(=O)/C=C/NC(=O)[C@H](O)C(C)(C)CO)nn3)n1[B-]2(F)F [Compound 124] | ≤ 30 min | increased between 5 and 30 minutes; also recorded: selective uptake | double | six times greater | 6 times | strong 124-specific fluorescence; also recorded: Specific 124-fluorescence was observed; also recorded: strong fluorescence observed in the bladder; also recorded: Fluorescence specific for compound 124 was seen | 124-specific fluorescence was observed in the kidney medulla and kidneys (mainly renal medulla) | No fluorescence | renal clearance; also recorded: renal route | no significant uptake | 4 times | ten | fourteen | highest uptake at every timepoint; also recorded: selective uptake |  | 
2 | CC1=CC(C)=[N+]2C1=Cc1ccc(CCCn3cc(CCNC(=O)/C=C/NC(=O)[C@@H]4OC(C)(C)OCC4(C)C)nn3)n1[B-]2(F)F [Compound 125, (R,E)-N-((((3-[4,4-difluoro-5,7-dimethyl-4-bora-3a,4a-diaza-s-indacene-3-yl]propyl)-1H-1,2,3-triazol-4-yl)eth-ylamino)-3-oxoprop-1-enyl)-2,2,5,5-tetramethyl-1,3-dioxane-4-carboxamide] |  |  |  |  |  |  |  |  |  |  |  |  |  |  | showed targeting | showed targeting
